From patent US20240336654A1, “ANTIMICROBIAL PEPTIDOMIMETICS” (SPEXIS AG, priority 2021, published 2024)
Where a SMILES comes first, the peptide text is derived from it. Bridges are numbered along the chain shown (N, C = ends). [ ]: non-standard residue; d: D form. Hyp = O=C(O)[C@@H]1C[C@@H](O)CN1; Pen = CC(C)(S)[C@H](N)C(=O)O; ΔPro = O=C(O)[C@@H]1C=CCN1; dDab = NCC[C@@H](N)C(=O)O; Dab = NCC[C@H](N)C(=O)O

What was measured:
Format in all cases: cell-based
[1] = system: Escherichia coli ATCC 25922; settings: ATCC 25922
Procedure: (§1) Lyophilized peptides were weighed on a Microbalance (Mettler MT5) and dissolved in sterile water to a final concentration of 1 mg/mL. Stock solutions were kept at +4° C., light protected.
(§2) The selective antimicrobial activities of the peptides were determined in 96-well plates (Greiner, polystyrene) by the standard CLSI broth microdilution method (Clinical and Laboratory Standards Institute. Methods for Dilution Antimicrobial Susceptibility Tests for Bacteria That Grow Aerobically; Approved Standard-Ninth Edition. CLSI document M07-A9 (ISBN 1-56238-783-9 [Print]; ISBN 1-56238-784-7 [Electronic]). Clinical and Laboratory Standards Institute, 950 West Valley Road, Suite 2500, Wayne, Pennsylvania 19087, USA, 2012) with slight modifications.
(§3) Colonies of the microorganisms were diluted in saline (0.85%, NaCl) and adjusted using a McFarland reader (bioMérieux SA, Marcy-l'Etoile, France) to 0.5 McFarland standard. Subsequently, the bacterial suspension was diluted in Mueller-Hinton II (MHII, cation adjusted) broth to give approximately 5×10^5 colony forming units (CFU/mL).
(§4) Inocula of the microorganisms were diluted into Mueller-Hinton II (MH, cation adjusted) broth and compared with a 0.5 McFarland standard to give appr. 10^6 colony forming units (CFU)/mL. Aliquots (90 μl) of inoculate were added to 10 μl of water+P-80 (Polysorbate 80, 0.002% final concentration) containing the peptide in serial two-fold dilutions at 10 fold final concentration. The following microorganisms were used to determine antibiotic selectivity of the peptides: Escherichia coli ATCC 25922, Escherichia coli MCR-1 Af 45 and Klebsiella pneumoniae SSI3010. Antimicrobial activities of the peptides were expressed as the minimal inhibitory concentration (MIC) in μg/mL at which no visible growth was observed after 18-20 hours of incubation at 35° C.

[2] = system: Escherichia coli MCR-1 Af 45; settings: MCR-1 Af 45
Procedure: as §1, §2, §3, §4

[3] = system: Klebsiella pneumoniae SSI3010; settings: SSI3010
Procedure: as §1, §2, §3, §4

[4] = system: human red blood cells (hRBC); settings: red cells of human, 1 h, 200 μg/mL
Procedure: Lyophilized peptides were weighed on a Microbalance (Mettler MT5) and dissolved in sterile water to a final concentration of 1 mg/mL. Stock solutions were kept at +4° C., light protected. The peptides were tested for their hemolytic activity against human red blood cells (hRBC). Fresh hRBC were washed three times with phosphate buffered saline (PBS) and centrifuged for 5 min at 3000×g. Compounds (200 μg/mL) were incubated with 20% hRBC (v/v) for 1 h at 37° C. and shaking at 300 rpm. A value of 0% and 100% cell lyses, respectively, was determined by incubation of hRBC in the presence of PBS and 2.5% Triton X-100 in H2O, respectively. The samples were centrifuged, the supernatants were 8-fold diluted in PBS buffer and the optical densities (OD) were measured at 540 nm. The 100% lyses value (OD540H2O) gave an OD540 of approximately 0.5-1.0. Percent hemolysis was calculated as follows: (OD540peptide/OD540H2O)×100%.

In the case of CC[C@H](C)[C@H](NC(=O)[C@@H]1C=CCN1C(=O)[C@@H](N)C(C)C)C(=O)N[C@@H]1C(=O)N[C@@H](Cc2ccc(O)cc2)C(=O)N[C@@H]([C@@H](C)O)C(=O)N[C@@H](CC(N)=O)C(=O)N[C@@H](CCCNC(=N)N)C(=O)N[C@@H](CCN)C(=O)N[C@@H]([C@@H](C)O)C(=O)N[C@H](CCN)C(=O)N[C@@H](CCCCN)C(=O)N[C@@H](CCN)C(=O)N[C@@H](CCN)C(=O)N[C@H](C(=O)N[C@@H](Cc2ccc(O)cc2)C(=O)O)CSSC1(C)C [Example 10, Val-Pro(3,4dehydro)-Ile-Pen-Tyr-Thr-Asn-Arg-Dab-Thr-^DDab-Lys-Dab-Dab-Cys-Tyr] (H-V[ΔPro]I[Pen]YTNR[Dab]T[dDab]K[Dab][Dab]CY-OH; disulfide 4-15), the “Escherichia coli ATCC 25922 MIC” value [1] is reported as 0.0625 µg/mL, the “Escherichia coli MCR-1 Af45 MIC” value [2] is reported as 0.0625 µg/mL and the “Klebsiella pneumoniae SSI3010 MIC” value [3] is reported as 0.125 µg/mL. The “Hemolysis at 0.2 g/L” value [4] was <1%.

For CC[C@H](C)[C@H](NC(=O)[C@@H]1C[C@@H](O)CN1C(=O)[C@@H](N)C(C)C)C(=O)N[C@H]1CSSC[C@@H](C(=O)N[C@@H](Cc2ccc(O)cc2)C(=O)O)NC(=O)[C@H](CCN)NC(=O)[C@H](CCN)NC(=O)[C@H](CCCCN)NC(=O)[C@@H](CCN)NC(=O)[C@H]([C@@H](C)O)NC(=O)[C@H](CCN)NC(=O)[C@H](CCCNC(=N)N)NC(=O)[C@H](CC(N)=O)NC(=O)[C@H](CO)NC(=O)[C@H](Cc2ccc(O)cc2)NC1=O [Example 11, Val-Hyp-Ile-Cys-Tyr-Ser-Asn-Arg-Dab-Thr-^DDab-Lys-Dab-Dab-Cys-Tyr] (H-V[Hyp]ICYSNR[Dab]T[dDab]K[Dab][Dab]CY-OH; disulfide 4-15), the “Escherichia coli ATCC 25922 MIC” value [1] was 0.5 µg/mL, the “Escherichia coli MCR-1 Af45 MIC” value [2] was 0.25 µg/mL and the “Klebsiella pneumoniae SSI3010 MIC” value [3] was 0.5 µg/mL. For the same molecule, the “Hemolysis at 0.2 g/L” value [4] was <1%.

In the case of CC[C@H](C)[C@H](NC(=O)[C@@H]1C[C@@H](O)CN1C(=O)[C@@H](N)C(C)C)C(=O)N[C@H]1CSSC(C)(C)[C@@H](C(=O)N[C@@H](Cc2ccc(O)cc2)C(=O)O)NC(=O)[C@H](CCN)NC(=O)[C@H](CCN)NC(=O)[C@H](CCCCN)NC(=O)[C@@H](CCN)NC(=O)[C@H]([C@@H](C)O)NC(=O)[C@H](CCN)NC(=O)[C@H](CCCNC(=N)N)NC(=O)[C@H](CC(N)=O)NC(=O)[C@H](CO)NC(=O)[C@H](Cc2ccc(O)cc2)NC1=O [Example 12, Val-Hyp-Ile-Cys-Tyr-Ser-Asn-Arg-Dab-Thr-^DDab-Lys-Dab-Dab-Pen-Tyr] (H-V[Hyp]ICYSNR[Dab]T[dDab]K[Dab][Dab][Pen]Y-OH; disulfide 4-15), the “Escherichia coli ATCC 25922 MIC” value [1] is reported as 0.25 µg/mL, the “Escherichia coli MCR-1 Af45 MIC” value [2] is reported as 0.125 µg/mL and the “Klebsiella pneumoniae SSI3010 MIC” value [3] is reported as 0.5 µg/mL. For the same molecule, the “Hemolysis at 0.2 g/L” value [4] was <1%.

For CC[C@H](C)[C@H](NC(=O)[C@@H]1C[C@@H](O)CN1C(=O)[C@@H](N)C(C)C)C(=O)N[C@@H]1C(=O)N[C@@H](C)C(=O)N[C@@H](CO)C(=O)N[C@@H](CC(N)=O)C(=O)N[C@@H](CCCNC(=N)N)C(=O)N[C@@H](CCN)C(=O)N[C@@H]([C@@H](C)O)C(=O)N[C@H](CCN)C(=O)N[C@@H](CCCCN)C(=O)N[C@@H](CCN)C(=O)N[C@@H](CCN)C(=O)N[C@H](C(=O)N[C@@H](Cc2ccc(O)cc2)C(=O)O)CSSC1(C)C [Example 13, Val-Hyp-Ile-Pen-Ala-Ser-Asn-Arg-Dab-Thr-^DDab-Lys-Dab-Dab-Cys-Tyr] (H-V[Hyp]I[Pen]ASNR[Dab]T[dDab]K[Dab][Dab]CY-OH; disulfide 4-15), the “Escherichia coli ATCC 25922 MIC” value [1] was 0.5 µg/mL, the “Escherichia coli MCR-1 Af45 MIC” value [2] was 0.125 µg/mL and the “Klebsiella pneumoniae SSI3010 MIC” value [3] was 0.5 µg/mL. The “Hemolysis at 0.2 g/L” value [4] was <1%.

In the case of CC[C@H](C)[C@H](NC(=O)[C@@H]1C[C@@H](O)CN1C(=O)[C@@H](N)C(C)C)C(=O)N[C@@H]1C(=O)N[C@@H](CO)C(=O)N[C@@H](CO)C(=O)N[C@@H](CC(N)=O)C(=O)N[C@@H](CCCNC(=N)N)C(=O)N[C@@H](CCN)C(=O)N[C@@H]([C@@H](C)O)C(=O)N[C@H](CCN)C(=O)N[C@@H](CCCCN)C(=O)N[C@@H](CCN)C(=O)N[C@@H](CCN)C(=O)N[C@H](C(=O)N[C@@H](Cc2ccc(O)cc2)C(=O)O)CSSC1(C)C [Example 14, Val-Hyp-Ile-Pen-Ser-Ser-Asn-Arg-Dab-Thr-^DDab-Lys-Dab-Dab-Cys-Tyr] (H-V[Hyp]I[Pen]SSNR[Dab]T[dDab]K[Dab][Dab]CY-OH; disulfide 4-15), the “Escherichia coli ATCC 25922 MIC” value [1] is reported as 0.5 µg/mL, the “Escherichia coli MCR-1 Af45 MIC” value [2] is reported as 0.25 µg/mL and the “Klebsiella pneumoniae SSI3010 MIC” value [3] is reported as 0.5 µg/mL. The “Hemolysis at 0.2 g/L” value [4] was <1%.

For CC[C@H](C)[C@H](NC(=O)[C@@H]1C[C@@H](O)CN1C(=O)[C@@H](N)C(C)C)C(=O)N[C@@H]1C(=O)N[C@@H](Cc2ccc(O)cc2)C(=O)N[C@@H]([C@@H](C)O)C(=O)N[C@@H](CC(N)=O)C(=O)N[C@@H](CCCNC(=N)N)C(=O)N[C@@H](CCN)C(=O)N[C@@H]([C@@H](C)O)C(=O)N[C@H](CCN)C(=O)N[C@@H](CCCCN)C(=O)N[C@@H](CCN)C(=O)N[C@@H](CCN)C(=O)N[C@H](C(=O)N[C@@H](Cc2ccc(O)cc2)C(=O)O)CSSC1(C)C [Example 15, Val-Hyp-Ile-Pen-Tyr-Thr-Asn-Arg-Dab-Thr-^DDab-Lys-Dab-Dab-Cys-Tyr] (H-V[Hyp]I[Pen]YTNR[Dab]T[dDab]K[Dab][Dab]CY-OH; disulfide 4-15), the “Escherichia coli ATCC 25922 MIC” value [1] was 0.0625 µg/mL, the “Escherichia coli MCR-1 Af45 MIC” value [2] was 0.0625 µg/mL and the “Klebsiella pneumoniae SSI3010 MIC” value [3] was 0.125 µg/mL. The “Hemolysis at 0.2 g/L” value [4] was <1%.

In the case of CC[C@H](C)[C@@H]1NC(=O)[C@H](Cc2ccc(O)cc2)NC(=O)[C@@H](NC(=O)[C@@H](NC(=O)[C@@H]2C[C@@H](O)CN2C(=O)[C@@H](N)C(C)C)[C@@H](C)CC)C(C)(C)SSC[C@@H](C(=O)N[C@@H](Cc2ccc(O)cc2)C(=O)O)NC(=O)[C@H](CCN)NC(=O)[C@H](CCCNC(=N)N)NC(=O)[C@H](CCCCN)NC(=O)[C@@H](CCN)NC(=O)[C@H]([C@@H](C)O)NC(=O)[C@H](CCN)NC(=O)[C@H](CCCNC(=N)N)NC(=O)[C@H](CC(N)=O)NC1=O [Example 16, Val-Hyp-Ile-Pen-Tyr-Ile-Asn-Arg-Dab-Thr-^DDab-Lys-Arg-Dab-Cys-Tyr] (H-V[Hyp]I[Pen]YINR[Dab]T[dDab]KR[Dab]CY-OH; disulfide 4-15), the “Escherichia coli ATCC 25922 MIC” value [1] is reported as 0.375 µg/mL, the “Escherichia coli MCR-1 Af45 MIC” value [2] is reported as 0.25 µg/mL and the “Klebsiella pneumoniae SSI3010 MIC” value [3] is reported as 0.5 µg/mL. The “Hemolysis at 0.2 g/L” value [4] was <1%.

With CC[C@H](C)[C@H](NC(=O)[C@@H]1C[C@@H](O)CN1C(=O)[C@@H](N)C(C)C)C(=O)N[C@@H]1C(=O)N[C@@H](Cc2ccc(O)cc2)C(=O)N[C@@H](CCC(=O)O)C(=O)N[C@@H](CC(N)=O)C(=O)N[C@@H](CCCNC(=N)N)C(=O)N[C@@H](CCN)C(=O)N[C@@H]([C@@H](C)O)C(=O)N[C@H](CCN)C(=O)N[C@@H](CCCCN)C(=O)N[C@@H](CCN)C(=O)N[C@@H](CCN)C(=O)N[C@H](C(=O)N[C@@H](Cc2ccc(O)cc2)C(=O)O)CSSC1(C)C [Example 17, Val-Hyp-Ile-Pen-Tyr-Glu-Asn-Arg-Dab-Thr-^DDab-Lys-Dab-Dab-Cys-Tyr] (H-V[Hyp]I[Pen]YENR[Dab]T[dDab]K[Dab][Dab]CY-OH; disulfide 4-15) the “Escherichia coli ATCC 25922 MIC” value [1] was 0.5 µg/mL, the “Escherichia coli MCR-1 Af45 MIC” value [2] was 0.25 µg/mL and the “Klebsiella pneumoniae SSI3010 MIC” value [3] was 0.5 µg/mL. The “Hemolysis at 0.2 g/L” value [4] was <1%.

For CC[C@H](C)[C@H](NC(=O)[C@@H]1C[C@@H](O)CN1C(=O)[C@@H](N)C(C)C)C(=O)N[C@@H]1C(=O)N[C@@H](Cc2ccc(O)cc2)C(=O)N[C@@H](CC(N)=O)C(=O)N[C@@H](CC(N)=O)C(=O)N[C@@H](CCCNC(=N)N)C(=O)N[C@@H](CCN)C(=O)N[C@@H]([C@@H](C)O)C(=O)N[C@H](CCN)C(=O)N[C@@H](CCCCN)C(=O)N[C@@H](CCN)C(=O)N[C@@H](CCN)C(=O)N[C@H](C(=O)N[C@@H](Cc2ccc(O)cc2)C(=O)O)CSSC1(C)C [Example 18, Val-Hyp-Ile-Pen-Tyr-Asn-Asn-Arg-Dab-Thr-^DDab-Lys-Dab-Dab-Cys-Tyr] (H-V[Hyp]I[Pen]YNNR[Dab]T[dDab]K[Dab][Dab]CY-OH; disulfide 4-15), the “Escherichia coli ATCC 25922 MIC” value [1] was 0.25 µg/mL, the “Escherichia coli MCR-1 Af45 MIC” value [2] was 0.125 µg/mL and the “Klebsiella pneumoniae SSI3010 MIC” value [3] was 0.25 µg/mL. For the same molecule, the “Hemolysis at 0.2 g/L” value [4] was <1%.
